Experimental data reported in ChEMBL document CHEMBL1201862, “PubChem BioAssay data set” (2004).
Counter-ions that a name gives are not always drawn.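 Each compound was tested at five concentrations against cells in 96-well plates for 48 hours. The concentration for 50% growth inhibition is given as GI50.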 The source made the active and inactive calls. Rule as the data show it: active = GI50 up to about 1.1 µM and inactive = higher.

How the values were obtained:
Assay in all cases: DTP human tumour cell line panel, 48 h
M14 = tested on: M14
UACC-62 = tested on: UACC-62
CAKI-1 = tested on: CAKI-1
OVCAR-4 = tested on: OVCAR-4
UO-31 = tested on: UO-31
NCI-H23 = tested on: NCI-H23
RXF 393 = tested on: RXF 393
MDA-MB-435 = tested on: MDA-MB-435
MCF7 = tested on: MCF7
HL-60 = tested on: HL-60
SK-MEL-2 = tested on: SK-MEL-2
SK-MEL-28 = tested on: SK-MEL-28
SF-268 = tested on: SF-268
SNB-19 = tested on: SNB-19
A498 = tested on: A498
HOP-62 = tested on: HOP-62
SF-295 = tested on: SF-295
MDA-N = tested on: MDA-N
SR = tested on: SR

Row | SMILES | GI50 (M14) | GI50 (UACC-62) | GI50 (CAKI-1) | GI50 (OVCAR-4) | GI50 (UO-31) | GI50 (NCI-H23) | GI50 (RXF 393) | GI50 (MDA-MB-435) | GI50 (MCF7) | GI50 (HL-60) | GI50 (SK-MEL-2) | GI50 (SK-MEL-28) | GI50 (SF-268) | GI50 (SNB-19) | GI50 (A498) | GI50 (HOP-62) | GI50 (SF-295) | GI50 (MDA-N) | GI50 (SR)
1 | COC(=O)c1c(C#N)c(N)nc2c1CCC2 | > 100 µM (inactive) | > 100 µM (inactive) | > 100 µM (inactive) | 93.3 µM (inactive) | 69.7 µM (inactive) | > 100 µM (inactive) | > 100 µM (inactive) | > 100 µM (inactive) | > 100 µM (inactive) | > 100 µM (inactive) | > 100 µM (inactive) | > 100 µM (inactive) | > 100 µM (inactive) | > 100 µM (inactive) | > 100 µM (inactive) | > 100 µM (inactive) | > 100 µM (inactive) | > 100 µM (inactive) | –
2 | CCNCC(O)COc1ccc2c(c1)[n+]([O-])nc(N)[n+]2[O-] (stereo not drawn) | 40.7 µM (inactive) | 18 µM (inactive) | 26.9 µM (inactive) | 37.2 µM (inactive) | > 100 µM (inactive) | 47.4 µM (inactive) | – | > 100 µM (inactive) | 74 µM (inactive) | 43.1 µM (inactive) | 39.6 µM (inactive) | > 100 µM (inactive) | 31.3 µM (inactive) | 61.2 µM (inactive) | 27.8 µM (inactive) | 23.5 µM (inactive) | 34.4 µM (inactive) | > 100 µM (inactive) | 45.5 µM (inactive)
3 | CC1(C)C(/C=N\O)=[N+]([O-])C(C)(C)N1O | > 100 µM (inactive) | > 100 µM (inactive) | > 100 µM (inactive) | > 100 µM (inactive) | > 100 µM (inactive) | > 100 µM (inactive) | > 100 µM (inactive) | 25.2 µM (inactive) | > 100 µM (inactive) | 31.6 µM (inactive) | > 100 µM (inactive) | > 100 µM (inactive) | > 100 µM (inactive) | > 100 µM (inactive) | – | > 100 µM (inactive) | > 100 µM (inactive) | 52.7 µM (inactive) | > 100 µM (inactive)
4 | C=C(C)[C@H]1CC23C(=O)C(C(=O)C(C)C)=C(O)[C@](C)(C[C@H]2C1(C)C)C3=O [LALIBINONE B] | 16.1 µM (inactive) | 16.3 µM (inactive) | 22 µM (inactive) | 12.6 µM (inactive) | 18.3 µM (inactive) | 18.9 µM (inactive) | 12.9 µM (inactive) | 16.4 µM (inactive) | 15.3 µM (inactive) | 15.2 µM (inactive) | 15.9 µM (inactive) | 15 µM (inactive) | 18.1 µM (inactive) | 25.8 µM (inactive) | – | 15.6 µM (inactive) | 15.1 µM (inactive) | 18.9 µM (inactive) | 14.5 µM (inactive)
5 | CC(=O)NNc1nc(C)c(C(=O)/C=C/C=C/c2ccccc2)s1 | 48.9 µM (inactive) | > 100 µM (inactive) | > 100 µM (inactive) | > 100 µM (inactive) | > 100 µM (inactive) | > 100 µM (inactive) | – | > 100 µM (inactive) | > 100 µM (inactive) | 44.4 µM (inactive) | – | > 100 µM (inactive) | > 100 µM (inactive) | > 100 µM (inactive) | > 100 µM (inactive) | 80.4 µM (inactive) | > 100 µM (inactive) | > 100 µM (inactive) | 80.9 µM (inactive)
6 | NCCS [CYSTEAMINE HYDROCHLORIDE] | > 100 µM (inactive) | – | > 100 µM (inactive) | > 100 µM (inactive) | > 100 µM (inactive) | > 100 µM (inactive) | – | > 100 µM (inactive) | > 100 µM (inactive) | > 100 µM (inactive) | > 100 µM (inactive) | > 100 µM (inactive) | > 100 µM (inactive) | > 100 µM (inactive) | – | > 100 µM (inactive) | > 100 µM (inactive) | > 100 µM (inactive) | > 100 µM (inactive)
7 | CCOC(=O)c1c(SCCO)n(-c2ccccc2)c(=S)n(-c2ccccc2)c1=O | > 100 µM (inactive) | > 100 µM (inactive) | > 100 µM (inactive) | > 100 µM (inactive) | > 100 µM (inactive) | > 100 µM (inactive) | – | > 100 µM (inactive) | > 100 µM (inactive) | > 100 µM (inactive) | > 100 µM (inactive) | > 100 µM (inactive) | > 100 µM (inactive) | > 100 µM (inactive) | – | > 100 µM (inactive) | > 100 µM (inactive) | > 100 µM (inactive) | > 100 µM (inactive)
8 | C/C(=N\Nc1nc2ccccc2s1)c1cnccn1 | 0.685 µM (active) | 3.88 µM (inactive) | 0.256 µM (active) | 16.7 µM (inactive) | 1.06 µM (active) | 1.94 µM (inactive) | 12.7 µM (inactive) | 6.01 µM (inactive) | 1.52 µM (inactive) | – | 7.5 µM (inactive) | 9.66 µM (inactive) | 1.16 µM (inactive) | 3.67 µM (inactive) | – | 2.75 µM (inactive) | 2.76 µM (inactive) | 11.4 µM (inactive) | 0.652 µM (active)
9 | C1CSC[C@H]2COC[C@@H](CSCCS1)S2 | > 100 µM (inactive) | – | – | > 100 µM (inactive) | > 100 µM (inactive) | > 100 µM (inactive) | – | > 100 µM (inactive) | > 100 µM (inactive) | > 100 µM (inactive) | – | > 100 µM (inactive) | > 100 µM (inactive) | > 100 µM (inactive) | – | > 100 µM (inactive) | > 100 µM (inactive) | > 100 µM (inactive) | > 100 µM (inactive)
10 | CC1=NC(=Cc2ccc(O)cc2)C(=O)N1n1c(-c2ccccc2)nc2ccccc2c1=O | > 100 µM (inactive) | > 100 µM (inactive) | > 100 µM (inactive) | – | > 100 µM (inactive) | > 100 µM (inactive) | – | > 100 µM (inactive) | > 100 µM (inactive) | > 100 µM (inactive) | – | > 100 µM (inactive) | > 100 µM (inactive) | > 100 µM (inactive) | > 100 µM (inactive) | > 100 µM (inactive) | > 100 µM (inactive) | > 100 µM (inactive) | > 100 µM (inactive)
11 | CCO/C(Cc1ccc(Cl)cc1)=N/NC(N)=S | > 100 µM (inactive) | > 100 µM (inactive) | > 100 µM (inactive) | > 100 µM (inactive) | 72.9 µM (inactive) | > 100 µM (inactive) | – | > 100 µM (inactive) | > 100 µM (inactive) | – | > 100 µM (inactive) | > 100 µM (inactive) | – | > 100 µM (inactive) | > 100 µM (inactive) | > 100 µM (inactive) | > 100 µM (inactive) | > 100 µM (inactive) | > 100 µM (inactive)
12 | C#C[C@]1(O)CC[C@H]2[C@@H]3CCC4=C/C(=N/CCOC(=O)c5cccc6c(=O)c7ccccc7[nH]c56)CC[C@@H]4[C@H]3CC[C@@]21C | 41.7 µM (inactive) | 36.8 µM (inactive) | 51.3 µM (inactive) | 32.7 µM (inactive) | 37.8 µM (inactive) | 32.7 µM (inactive) | 5.62 µM (inactive) | 31.8 µM (inactive) | 26.1 µM (inactive) | 23.1 µM (inactive) | 30.1 µM (inactive) | 47.6 µM (inactive) | 53.6 µM (inactive) | 90.2 µM (inactive) | 58.6 µM (inactive) | 37.2 µM (inactive) | 23 µM (inactive) | 50.7 µM (inactive) | –
13 | COc1cnc2cc(C(=O)O)c3c([N+](=O)[O-])cccc3c2c1 | > 100 µM (inactive) | > 100 µM (inactive) | > 100 µM (inactive) | > 100 µM (inactive) | > 100 µM (inactive) | > 100 µM (inactive) | > 100 µM (inactive) | > 100 µM (inactive) | > 100 µM (inactive) | > 100 µM (inactive) | > 100 µM (inactive) | > 100 µM (inactive) | > 100 µM (inactive) | > 100 µM (inactive) | – | > 100 µM (inactive) | > 100 µM (inactive) | > 100 µM (inactive) | > 100 µM (inactive)
14 | O=C(/C=C/c1ccsc1)c1ccc(Cl)cc1 | 80.7 µM (inactive) | 41.6 µM (inactive) | > 100 µM (inactive) | > 100 µM (inactive) | 31.1 µM (inactive) | 35.3 µM (inactive) | – | 41.8 µM (inactive) | 34.8 µM (inactive) | 19.1 µM (inactive) | > 100 µM (inactive) | > 100 µM (inactive) | 79.4 µM (inactive) | 53.8 µM (inactive) | 45 µM (inactive) | > 100 µM (inactive) | > 100 µM (inactive) | 59 µM (inactive) | 18.7 µM (inactive)
15 | CC(C)CCC[C@@H](C)C1CCC2[C@@H]3CCC4C[C@@H](NS(C)(=O)=O)CC[C@]4(C)C3CC[C@@]21C (stereo partly drawn) | > 100 µM (inactive) | > 100 µM (inactive) | > 100 µM (inactive) | > 100 µM (inactive) | > 100 µM (inactive) | > 100 µM (inactive) | > 100 µM (inactive) | > 100 µM (inactive) | > 100 µM (inactive) | > 100 µM (inactive) | > 100 µM (inactive) | > 100 µM (inactive) | > 100 µM (inactive) | > 100 µM (inactive) | – | > 100 µM (inactive) | > 100 µM (inactive) | > 100 µM (inactive) | > 100 µM (inactive)
16 | CCOC(=O)C(NC(=O)CC(C)C)(Nc1ccc(C(F)(F)F)cc1)C(F)(F)F (stereo not drawn) | > 100 µM (inactive) | – | – | 35.4 µM (inactive) | 61.7 µM (inactive) | 76.4 µM (inactive) | 35.4 µM (inactive) | > 100 µM (inactive) | > 100 µM (inactive) | 21 µM (inactive) | 15.7 µM (inactive) | > 100 µM (inactive) | > 100 µM (inactive) | > 100 µM (inactive) | – | 36.1 µM (inactive) | > 100 µM (inactive) | 32.6 µM (inactive) | 23.4 µM (inactive)
